Assay results reported in EP0898962A1, “Transdermal patches and methods for inactivating skin proteases” (Becton, Dickinson and Company, priority 1997, dated 1999).

Experiment: Incubation of peptide drugs on human skin
Type: in vitro ADME
Description: Effects of proteases on in vivo or in vitro transdermal delivery has been reported for vasopressin and vasopressin analogues (Morimoto et al., Int. Journal Pharmaceutics 81: 119-125, 1992), des-enkephalon-γ-endorphin (Bodde et al., Biochem. Soc. Trans. 17: 943-945, 1989), leucine enkephalin (Choi at al., 1990), and salmon calcitonin (SCT) (Morimoto et al., J. Pharm. Pharmacol. 44; 216-218, 1992). This was concluded because addition of protease inhibitors appear to enhance delivery as determined by increased biological effect of the peptides. For example, camostat mesilate (a serine protease inhibitor) increased the hypocalcemic effect of iontophoretically-delivered SCT (Morimoto, J. Pharm. Pharmacol. 1992) and the antidiuretic effects of vasopressin delivered iontophoretically in rats (Morimoto, Int. Journal Pharmaceutics, 1992). We have observed that incubation of insulin analogues or SCT on human skin results in degradation, which supports the notion that proteolysis accounts for previously observed losses of these peptide drugs during iontophoretic delivery.

salmon calcitonin [SCT]
result of incubation on human skin: degradation
